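Interpolation was linear, between the two tested concentrations surrounding the appropriate level; five concentrations were tested over 48 hours in 96-well plates. The concentration for 50% growth inhibition is given as GI50. Definition used: TGI = concentration required for complete inhibition of growth.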
What was measured:
Assay in all cases: NCI anticancer screen, dose series, 48 h
[1] = test system: CCRF-CEM leukemia
[2] = test system: SK-OV-3 ovarian
[3] = test system: KM12 colon
[4] = test system: 786-0 renal
[5] = test system: HCT-15 colon
[6] = test system: OVCAR-4 ovarian
[7] = test system: MALME-3M melanoma
[8] = test system: ACHN renal
[9] = test system: A549 NSCLC
[10] = test system: UO-31 renal
[11] = test system: HL-60(TB) leukemia
[12] = test system: COLO 205 colon
[13] = test system: UACC-257 melanoma
[14] = test system: NCI/ADR-RES ovarian
[15] = test system: HOP-92 NSCLC
[16] = test system: HCC-2998 colon
[17] = test system: RXF 393 renal
[18] = test system: SR leukemia
[19] = test system: OVCAR-8 ovarian
[20] = test system: UACC-62 melanoma
[21] = test system: SK-MEL-5 melanoma
[22] = test system: A498 renal
[23] = test system: NCI-H460 lung
[24] = test system: T-47D breast
[25] = test system: SW-620 colon
[26] = test system: NCI-H226 lung
[27] = test system: IGROV1 ovarian
[28] = test system: SF-539 CNS
[29] = test system: NCI-H23 lung
[30] = test system: HCT-116 colon
[31] = test system: BT-549 breast
[32] = test system: HS 578T breast
[33] = test system: LOX IMVI melanoma
[34] = test system: EKVX NSCLC
[35] = test system: OVCAR-5 ovarian
[36] = test system: RPMI-8226 leukemia
[37] = test system: MOLT-4 leukemia
[38] = test system: SN12C renal
[39] = test system: MDA-MB-435
[40] = test system: SNB-75 CNS
[41] = test system: TK-10 renal
[42] = test system: HT29 colon
[43] = test system: SNB-19 CNS
[44] = test system: SF-295 CNS
[45] = test system: CAKI-1 renal
[46] = test system: DU-145 prostate
[47] = test system: MCF7 breast
[48] = test system: MDA-MB-231 breast
[49] = test system: OVCAR-3 ovarian
[50] = test system: U251 CNS
[51] = test system: SK-MEL-2 melanoma
[52] = test system: HOP-62 NSCLC
[53] = test system: K-562 leukemia
[54] = test system: SF-268 CNS
[55] = test system: M14 melanoma
[56] = test system: PC-3 prostate
[57] = test system: SK-MEL-28 melanoma

## O=C(/C=C\c1cc(Br)ccc1O)/C=C/c1cc(Br)ccc1O
[1]
  GI50: 282 nM
  TGI: 10500 nM
[2]
  GI50: 4410 nM
  TGI: 12300 nM
[3]
  GI50: 1250 nM
  TGI: 2720 nM
[4]
  GI50: 1230 nM
  TGI: 2550 nM
[5]
  GI50: 384 nM
  TGI: 1760 nM
[6]
  GI50: 1210 nM
  TGI: 6870 nM
[7]
  GI50: 1500 nM
  TGI: 3080 nM
[8]
  GI50: 661 nM
  TGI: 2050 nM
[9]
  GI50: 2610 nM
  TGI: 13500 nM
[10]
  GI50: 882 nM
  TGI: 2200 nM
[11]
  GI50: 385 nM
  TGI: 4260 nM
[12]
  GI50: 1550 nM
  TGI: 3690 nM
[13]
  GI50: 1540 nM
  TGI: 4090 nM
[14]
  GI50: 321 nM
  TGI: 12900 nM
[15]
  GI50: 1570 nM
  TGI: 3690 nM
[16]
  GI50: 1510 nM
  TGI: 2890 nM
[17]
  GI50: 348 nM
  TGI: 1410 nM
[18]
  GI50: 321 nM
  TGI: 29700 nM
[19]
  GI50: 345 nM
  TGI: 11600 nM
[20]
  GI50: 429 nM
  TGI: 1800 nM
[21]
  GI50: 426 nM
  TGI: 1660 nM
[22]
  GI50: 1650 nM
  TGI: 3260 nM
[23]
  GI50: 1570 nM
  TGI: 3910 nM
[24]
  GI50: 635 nM
  TGI: 4940 nM
[25]
  GI50: 379 nM
  TGI: 1610 nM
[26]
  GI50: 2630 nM
  TGI: 8690 nM
[27]
  GI50: 1600 nM
  TGI: 3620 nM
[28]
  GI50: 1470 nM
  TGI: 3350 nM
[29]
  GI50: 870 nM
  TGI: 2680 nM
[30]
  GI50: 345 nM
  TGI: 1260 nM
[31]
  GI50: 897 nM
  TGI: 3840 nM
[32]
  GI50: 1250 nM
  TGI: 39200 nM
[33]
  GI50: 208 nM
  TGI: 463 nM
[34]
  GI50: 1540 nM
  TGI: 3180 nM
[35]
  GI50: 1670 nM
  TGI: 3330 nM
[36]
  GI50: 300 nM
  TGI: 1400 nM
[37]
  GI50: 316 nM
  TGI: 12000 nM
[38]
  GI50: 1470 nM
  TGI: 4630 nM
[39]
  GI50: 355 nM
  TGI: 1530 nM
[40]
  GI50: 1340 nM
  TGI: 2800 nM
[41]
  GI50: 2050 nM
  TGI: 4030 nM
[42]
  GI50: 451 nM
  TGI: 1840 nM
[43]
  GI50: 1030 nM
  TGI: 2550 nM
[44]
  GI50: 538 nM
  TGI: 1930 nM
[45]
  GI50: 938 nM
  TGI: 3330 nM
[46]
  GI50: 814 nM
  TGI: 2170 nM
[47]
  GI50: 339 nM
  TGI: 2130 nM
[48]
  GI50: 372 nM
  TGI: 4070 nM
[49]
  GI50: 351 nM
  TGI: 1130 nM
[50]
  GI50: 383 nM
  TGI: 1550 nM
[51]
  GI50: 2250 nM
  TGI: 6150 nM
[52]
  GI50: 3220 nM
  TGI: 9440 nM
[53]
  GI50: 445 nM
  TGI: 8120 nM
[54]
  GI50: 1330 nM
  TGI: 3100 nM
[55]
  GI50: 651 nM
  TGI: 3080 nM
[56]
  GI50: 630 nM
  TGI: 3080 nM
[57]
  GI50: 555 nM
  TGI: 1960 nM

From PubChem BioAssay (NCI)
